In US20240150293A1, “SPIROCYCLOHEXANE DERIVATIVES, PHARMACEUTICAL COMPOSITIONS CONTAINING THEM AND THEIR USES AS ANTI-APOPTOTIC INHIBITORS” (LES LABORATOIRES SERVIER, priority 2021, published 2024):

Biological target: Mcl-1 protein (UniProtKB Q07820) (Homo sapiens (Human), UniProt Q07820)
Assay: Inhibition of Mcl-1 by the fluorescence polarisation assay (Example A, Method A)
Type: binding
Settings: fluorescence polarization assay
Description: The relative binding potency of each compound was determined via Fluorescence Polarisation (FP). The method utilised a Fluorescein labelled ligand (Fluorescein-βAla-Ahx-A-REIGAQLRRMADDLNAQY-OH; MW 2,765) which binds to the Mcl-1 protein (such that Mcl-1 corresponds to the UniProtKB® primary accession number: Q07820) leading to an increased anisotropy measured in milli-polarisation (mP) units using a reader. The addition of a compound which binds competitively to the same site as the ligand will result in a greater proportion of unbound ligand in the system indicated by a decrease in mP units.
An 11 point serial dilution of each compound was prepared in DMSO and 2 μl transferred into flat bottomed, low binding, 384-well plate (final DMSO concentration 5%). 38 μl of buffer containing the Fluorescein labelled ligand (final concentration 1 nM) and Mcl-1 protein (final concentration 5 nM) was then added. Buffer components were 10 mM 4-(2-hydroxyethyl)-1-piperazineethanesulfonic acid [HEPES], 150 mM NaCl, pH 7.4 with the addition of 0.05% Tween 20.
Assay plates were incubated for 2 hours at room temperature before FP was measured on a […] Synergy Neo reader ([…], Cut off 510 nm) and mP units calculated. The binding of increasing doses of test compound was expressed as a percentage reduction in mP compared to a window established between ‘5% DMSO only’ and ‘100% inhibition’ controls. 11-point dose response curves were plotted with XL-Fit software using a 4-Parameter Logistic Model (Sigmoidal Dose-Response Model) and the inhibitory concentrations that gave a 50% reduction in mP (IC50) were determined. The Ki values were determined from the IC50 values according to Cer et al, Nucleic Acids Res, 2009, 37 (WebServer issue): W441-W445. Inhibition constants (Ki) are determined from complete binding inhibition curves (cKi) or from estimated from incomplete binding inhibition curves (eKi) in most cases due to low activity.

Chain of Mcl-1 protein (Q07820 whole entry): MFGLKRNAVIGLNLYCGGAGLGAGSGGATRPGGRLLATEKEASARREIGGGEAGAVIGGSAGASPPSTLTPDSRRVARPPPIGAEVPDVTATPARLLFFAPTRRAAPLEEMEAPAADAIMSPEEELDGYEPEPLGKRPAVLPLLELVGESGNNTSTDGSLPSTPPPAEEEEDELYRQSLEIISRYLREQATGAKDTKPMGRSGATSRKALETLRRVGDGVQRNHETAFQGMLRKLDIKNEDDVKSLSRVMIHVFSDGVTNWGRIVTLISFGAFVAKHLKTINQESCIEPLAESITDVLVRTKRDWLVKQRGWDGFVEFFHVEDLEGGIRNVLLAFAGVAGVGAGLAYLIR

| Ki [nM] | Compound |
| --- | --- |
| 324 | O=C(O)[C@]1(Nc2cccc(Cl)c2)CC[C@@]2(CC1)c1ccccc1CC2CCCOc1cccc2[nH]cnc12 (stereo partly drawn) [Example 469, (1r,4r)-2′-{3-[(1H-benzimidazol-4-yl)oxy]propyl}-4-(3-chloroanilino)-2′,3′-dihydrospiro[cyclohexane-1,1′-indene]-4-carboxylic acid] |
| 1870 | Cc1csc(C2=Cc3ccccc3[C@]23CC[C@@](Nc2cccc(Cl)c2)(C(=O)O)CC3)c1 [Example 316, (1s,4s)-4-(3-chloroanilino)-2′-(4-methylthiophen-2-yl)spiro[cyclohexane-1,1′-indene]-4-carboxylic acid] |
| 5760 | O=C(O)C1(Nc2cccc(Br)c2)CCC2(CC1)c1ccccc1-c1ccccc12 [Example 117, 4-[(3-bromophenyl)amino]spiro[cyclohexane-1,9′-fluorene]-4-carboxylic acid] |
| 6920 | CCC1=Cc2ccccc2[C@]12CC[C@](Nc1cccc(Br)c1)(C(=O)O)CC2 [Example 146, (1s,4s)-4-(3-bromoanilino)-2′-ethylspiro[cyclohexane-1,1′-indene]-4-carboxylic acid] |
| 710 | C[C@H](COc1ccnc2ccsc12)CC1Cc2ccccc2[C@]12CC[C@@](Nc1cccc(Cl)c1)(C(=O)O)CC2 (stereo partly drawn) [Example 592, (1r,4S)-4-(3-chloroanilino)-2′-{(2S)-2-methyl-3-[(thieno[3,2-b]pyridin-7-yl)oxy]propyl}-2′,3′-dihydrospiro[cyclohexane-1,1′-indene]-4-carboxylic acid] |
| 89000 | COc1cc(OC)cc(C2=Cc3ccccc3C23CCC(Nc2cccc(Br)c2)(C(=O)O)CC3)c1 (single isomer, unassigned) [Example 237, 4-(3-bromoanilino)-2′-(3,5-dimethoxyphenyl)spiro[cyclohexane-1,1′-indene]-4-carboxylic acid] |
| 1720 | COc1cccc(C2Cc3ccccc3[C@]23CC[C@@](Nc2cccc(Cl)c2)(C(=O)O)CC3)c1 (single isomer, unassigned) [Example 273, (1r,4r)-4-(3-chloroanilino)-2′-(3-methoxyphenyl)-2′,3′-dihydrospiro[cyclohexane-1,1′-indene]-4-carboxylic acid] |
| 43500 | COc1ccc2c(c1)[C@]1(CC2)CC[C@@](Nc2cccc(Br)c2)(C(=O)O)CC1 [Example 62, (1s,4r)-4-(3-bromoanilino)-6′-methoxy-2′,3′-dihydrospiro[cyclohexane-1,1′-indene]-4-carboxylic acid] |
| 10600 | COc1cc(Cl)cc(C2Cc3ccccc3[C@]23CC[C@@](Nc2cccc(Cl)c2)(C(=O)O)CC3)c1 (single isomer, unassigned) [Example 348, (1r,4r)-4-(3-chloroanilino)-2′-(3-chloro-5-methoxyphenyl)-2′,3′-dihydrospiro[cyclohexane-1,1′-indene]-4-carboxylic acid] |
| 10100 | O=C(O)[C@]1(Nc2cccc(Cl)c2)CC[C@]2(CC1)C(C1=CCCCC1)=Cc1ccccc12 [Example 275, (1r,4r)-4-(3-chloroanilino)-2′-(cyclohex-1-en-1-yl)spiro[cyclohexane-1,1′-indene]-4-carboxylic acid] |
| 12800 | O=C(NCc1ccccc1)C1=Cc2ccccc2[C@]12CC[C@@](Nc1cccc(Cl)c1)(C(=O)O)CC2 [Example 180, (1s,4s)-2′-(benzylcarbamoyl)-4-(3-chloroanilino)spiro[cyclohexane-1,1′-indene]-4-carboxylic acid] |
| 5800 | COc1cccc(C)c1C1Cc2ccccc2[C@]12CC[C@@](Nc1cccc(Cl)c1)(C(=O)O)CC2 (mixture of isomers) [Example 286, (1r,4r)-4-(3-chloroanilino)-2′-(2-methoxy-6-methylphenyl)-2′,3′-dihydrospiro[cyclohexane-1,1′-indene]-4-carboxylic acid] |
| 1220 | O=C(O)[C@]1(Nc2cccc(Cl)c2)CC[C@]2(CC1)C(c1ccc3occc3c1)=Cc1ccccc12 [Example 247, (1s,4s)-2′-(1-benzofuran-5-yl)-4-(3-chloroanilino)spiro[cyclohexane-1,1′-indene]-4-carboxylic acid] |
| 42800 | CC1N(C=O)c2ccccc2[C@]12CC[C@](Nc1cccc(Br)c1)(C(=O)O)CC2 (stereo partly drawn) [Example 26, (1r,4r)-4-(3-bromoanilino)-1′-formyl-2′-methyl-1′,2′-dihydrospiro[cyclohexane-1,3′-indole]-4-carboxylic acid] |
| 809 | Cn1ccc(OCCCC2Cc3ccccc3[C@]23CC[C@@](Nc2cccc(Cl)c2)(C(=O)O)CC3)cc1=O (stereo partly drawn) [Example 479, (1r,4r)-4-(3-chloroanilino)-2′-{3-[(1-methyl-2-oxo-1,2-dihydropyridin-4-yl)oxy]propyl}-2′,3′-dihydrospiro[cyclohexane-1,1′-indene]-4-carboxylic acid] |
| 129000 | COc1ccc2c(c1)[C@]1(CC[C@](Nc3cccc(Br)c3)(C(=O)O)CC1)C1(CCCC1)C2 [Example 94, (1s,4s)-4-(3-bromoanilino)-6′-methoxy-3′H-dispiro[cyclohexane-1,1′-indene-2′,1″-cyclopentane]-4-carboxylic acid] |
| 25700 | Cc1cc(Br)cc2c1N(C)C(=O)[C@]21CC[C@@](Nc2cccc(Br)c2)(C(=O)O)CC1 [Example 20, (1r,4r)-5′-bromo-4-(3-bromoanilino)-1′,7′-dimethyl-2′-oxo-1′,2′-dihydrospiro[cyclohexane-1,3′-indole]-4-carboxylic acid] |
| 7220 | O=C(O)[C@]1(Nc2cccc(O)c2)CC[C@]2(CC1)C(Br)=Cc1ccccc12 [Example 84, (1s,4s)-2′-bromo-4-(3-hydroxyanilino)spiro[cyclohexane-1,1′-indene]-4-carboxylic acid] |
| 1210 | COc1ccc(C2Cc3ccccc3[C@]23CC[C@@](Nc2cccc(Cl)c2)(C(=O)O)CC3)cc1C (single isomer, unassigned) [Example 242, (1r,4r)-4-(3-chloroanilino)-2′-(4-methoxy-3-methylphenyl)-2′,3′-dihydrospiro[cyclohexane-1,1′-indene]-4-carboxylic acid] |
| 507 | O=C(O)[C@]1(Nc2cccc(Cl)c2)CC[C@@]2(CC1)c1ccccc1CC2CCCC1CCCC1 (stereo partly drawn) [Example 153, (1r,4r)-4-(3-chloroanilino)-2′-(3-cyclopentylpropyl)-2′,3′-dihydrospiro[cyclohexane-1,1′-indene]-4-carboxylic acid] |
| 134 | Cc1cc2nccc(OCCCC3Cc4ccccc4[C@]34CC[C@@](Nc3cccc(Cl)c3)(C(=O)O)CC4)c2s1 (stereo partly drawn) [Example 446, (1r,4r)-4-(3-chloroanilino)-2′-{3-[(2-methylthieno[3,2-b]pyridin-7-yl)oxy]propyl}-2′,3′-dihydrospiro[cyclohexane-1,1′-indene]-4-carboxylic acid] |
| 785 | O=C(O)[C@]1(Nc2cccc(Cl)c2)CC[C@]2(CC1)C(c1ccc(Oc3ccncc3)cc1)=Cc1ccccc12 [Example 342, (1s,4s)-4-(3-chloroanilino)-2′-{4-[(pyridin-4-yl)oxy]phenyl}spiro[cyclohexane-1,1′-indene]-4-carboxylic acid] |
| 1750 | Cn1ccc2cc(C3=Cc4ccccc4[C@]34CC[C@@](Nc3cccc(Cl)c3)(C(=O)O)CC4)ccc21 [Example 264, (1s,4s)-4-(3-chloroanilino)-2′-(1-methyl-1H-indol-5-yl)spiro[cyclohexane-1,1′-indene]-4-carboxylic acid] |
| 2370 | COc1ccc(Cl)c(C2Cc3ccccc3[C@]23CC[C@@](Nc2cccc(Cl)c2)(C(=O)O)CC3)c1 (single isomer, unassigned) [Example 258, (1r,4r)-4-(3-chloroanilino)-2′-(2-chloro-5-methoxyphenyl)-2′,3′-dihydrospiro[cyclohexane-1,1′-indene]-4-carboxylic acid] |
| 201 | O=C(O)[C@]1(Nc2cccc(Cl)c2)CC[C@@]2(CC1)c1ccccc1CC2c1cccc(OCc2cccnc2)c1 (single isomer, unassigned) [Example 372, (1r,4r)-4-(3-chloroanilino)-2′-{3-[(pyridin-3-yl)methoxy]phenyl}-2′,3′-dihydrospiro[cyclohexane-1,1′-indene]-4-carboxylic acid] |

| Compound | Ki [nM] |
| --- | --- |
| C[C@@H](COc1ccnc(N)c1)C[C@H]1Cc2ccccc2[C@]12CC[C@@](Nc1cccc(Cl)c1)(C(=O)O)CC2 [Example 583, (1r,2′S,4S)-2′-{(2R)-3-[(2-aminopyridin-4-yl)oxy]-2-methylpropyl}-4-(3-chloroanilino)-2′,3′-dihydrospiro[cclohexane-1,1′-indene]-4-carboxylic acid] | 191 |
| Cc1cc(OCCCC2Cc3ccccc3C23CCC(Nc2cccc(Cl)c2)(C(=O)O)CC3)cc(C)c1Cl (stereo not drawn) [Example 436, (1r,4r)-4-(3-chloroanilino)-2′-[3-(4-chloro-3,5-dimethylphenoxy)propyl]-2′,3′-dihydrospiro[cyclohexane-1,1′-indene]-4-carboxylic acid] | 918 |
